Results reported in PubChem BioAssay (NCI).
Values joined by “and” are separate entries in the source; they are usually repeats but may differ in a detail not shown here. Equal values may be shown once.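 Cells were grown in 96-well plates and exposed to each compound for 48 hours at five concentrations; endpoints were interpolated linearly between bracketing concentrations, or set to the highest concentration if not reached. GI50 is the concentration that inhibits growth by half. TGI: total growth inhibition.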

How the values were obtained:
Assay in all cases: NCI-60 cell line screen, 48 h
[1] = tested on: SF-295 CNS
[2] = tested on: NCI/ADR-RES ovarian
[3] = tested on: SN12C renal
[4] = tested on: MDA-MB-231 breast
[5] = tested on: HOP-92 NSCLC
[6] = tested on: OVCAR-8 ovarian
[7] = tested on: UO-31 renal
[8] = tested on: OVCAR-4 ovarian
[9] = tested on: UACC-257 melanoma
[10] = tested on: PC-3 prostate

O=C(O)c1cn(C2CC2)c2cc(N3CCN(C(=O)Nc4nc(-c5ccc(Br)cc5)cs4)CC3)c(F)cc2c1=O
GI50 [1]: 3.06 µM | TGI [1]: > 100 µM | GI50 [2]: > 100 µM | TGI [2]: > 100 µM | GI50 [3]: 3.07 µM | TGI [3]: > 100 µM | GI50 [4]: 3.48 µM | TGI [4]: > 100 µM | GI50 [5]: 2 µM | TGI [5]: 6.88 µM | GI50 [6]: 3.72 µM | TGI [6]: > 100 µM | GI50 [7]: 1.64 µM | TGI [7]: > 100 µM

C#CCn1c(=O)c2cccnc2n(CC#C)c1=O
TGI [1]: > 100 µM | TGI [8]: > 100 µM | TGI [3]: > 100 µM | TGI [9]: > 100 µM | TGI [5]: > 100 µM

C=C1C(=O)c2cc3c(cc2C(c2cc(OC)c(OC)c(OC)c2)[C@@H]1C(=O)O)OCO3 (some centres undefined)
TGI [1]: > 100 µM | TGI [3]: > 100 µM | TGI [9]: > 100 µM | TGI [5]: 75.4 µM | TGI [6]: > 100 µM | TGI [7]: > 100 µM

N#CC(/C(=N/NC(N)=S)C(=O)Nc1cccc(Cl)c1)c1ccccc1 (centres undefined)
TGI [1]: > 100 µM | TGI [8]: > 100 µM | TGI [3]: > 100 µM | TGI [9]: > 100 µM | TGI [5]: > 100 µM | TGI [6]: > 100 µM | TGI [7]: > 100 µM

COC1=CC(=O)OC(/C=C(C)/C=C/C2=C(C)CCCC2(C)C)C1 (centres undefined)
TGI [1]: > 100 µM | TGI [8]: > 100 µM | TGI [3]: > 100 µM | TGI [9]: > 100 µM | TGI [5]: > 100 µM | TGI [6]: > 100 µM | TGI [7]: > 100 µM

CCc1nc2ccccc2c(=O)n1/N=C(\N=Nc1ccc(Cl)cc1)c1ccccc1
TGI [1]: 53.6 µM | TGI [8]: 75.6 µM | TGI [3]: > 100 µM | TGI [9]: 59.6 µM | TGI [5]: 46.2 µM | TGI [6]: > 100 µM | TGI [7]: 76.8 µM

Cc1ccc(NC(=O)/C(=N\NC(N)=S)C(C#N)c2ccccc2C)cc1C (centres undefined)
TGI [1]: > 100 µM | TGI [8]: > 100 µM | TGI [3]: > 100 µM | TGI [9]: > 100 µM | TGI [5]: > 100 µM | TGI [6]: > 100 µM | TGI [7]: > 100 µM

CCOC(=O)Nc1ccc2c(c1)N(C(=O)CCN(CC)CC)c1ccccc1S2
TGI [1]: 54.4 µM | GI50 [8]: 84 µM | TGI [8]: 234 µM | TGI [2]: 86.8 µM | GI50 [3]: 24.3 µM | TGI [3]: > 76.8 µM and 85.3 µM | TGI [4]: 95.1 µM | GI50 [9]: 12.4 µM | TGI [9]: 32.3 µM and 35.4 µM | GI50 [5]: 14.2 µM | TGI [5]: 67.8 µM and 73.5 µM | GI50 [6]: 1.51 µM | TGI [6]: 2.5 µM | TGI [7]: > 89.5 µM

O=C1C(=C([O-])c2ccccc2)C(=O)c2ccccc21.O=C1C(=C([O-])c2ccccc2)C(=O)c2ccccc21.[Co+2]
GI50 [1]: 59.6 µM | TGI [1]: > 100 µM | GI50 [8]: > 100 µM | TGI [8]: > 100 µM | GI50 [3]: > 100 µM | TGI [3]: > 100 µM | GI50 [9]: 90.8 µM | TGI [9]: > 100 µM | GI50 [5]: 62.4 µM | TGI [5]: > 100 µM | GI50 [6]: > 100 µM | TGI [6]: > 100 µM | GI50 [7]: > 100 µM | TGI [7]: > 100 µM

Cc1cc(C(O)(c2ccc(Nc3ccccc3)cc2)c2ccc(Nc3ccc(S(=O)(=O)O)cc3)cc2)ccc1N (centres undefined)
GI50 [1]: 1.69 µM | TGI [1]: 3.25 µM | GI50 [8]: 1.31 µM | TGI [8]: 3.39 µM | GI50 [2]: 1.83 µM | TGI [2]: 4.58 µM | GI50 [3]: 1.82 µM | TGI [3]: 9.12 µM | GI50 [9]: 1.35 µM | TGI [9]: 3.43 µM | GI50 [5]: 1.03 µM | TGI [5]: 2.54 µM | GI50 [10]: 1.31 µM | TGI [10]: 6.18 µM | GI50 [6]: 1.08 µM | TGI [6]: 3.57 µM | GI50 [7]: 1.12 µM | TGI [7]: 2.38 µM

OCCCc1cnco1
TGI [1]: > 100 µM | TGI [8]: > 100 µM | TGI [3]: > 100 µM | TGI [9]: > 100 µM | TGI [5]: > 100 µM | TGI [6]: > 100 µM | TGI [7]: > 100 µM

NC(=O)CCc1ccccc1Oc1nccc(-c2c(-c3ccc(F)cc3)ncn2C2CCNCC2)n1
GI50 [1]: > 25 µM | TGI [1]: > 25 µM | GI50 [8]: > 25 µM | TGI [8]: > 25 µM | GI50 [2]: > 25 µM | TGI [2]: > 25 µM | GI50 [3]: > 25 µM | TGI [3]: > 25 µM | GI50 [4]: > 25 µM | TGI [4]: > 25 µM | GI50 [10]: > 25 µM | TGI [10]: > 25 µM | GI50 [6]: > 25 µM | TGI [6]: > 25 µM | GI50 [7]: > 25 µM | TGI [7]: > 25 µM

N#Cc1c2ccccc2c2nnc3ccccc3n12
GI50 [1]: 49 µM | TGI [1]: > 100 µM | GI50 [8]: > 100 µM | TGI [8]: > 100 µM | GI50 [5]: > 100 µM | TGI [5]: > 100 µM | GI50 [10]: 63.5 µM | TGI [10]: > 100 µM | GI50 [6]: 11.1 µM | TGI [6]: 45.9 µM | GI50 [7]: 20 µM | TGI [7]: > 100 µM

Fc1ccc(C2SCc3nc4ccccc4n32)cc1F (centres undefined)
TGI [1]: > 100 µM | TGI [8]: 98.9 µM | TGI [3]: > 100 µM | TGI [9]: > 100 µM | TGI [6]: > 100 µM | TGI [7]: 41 µM

CC(=O)CC(=O)NC=O
TGI [1]: > 100 µM | TGI [8]: > 100 µM | TGI [3]: > 100 µM | TGI [9]: > 100 µM | TGI [5]: > 100 µM | TGI [6]: > 100 µM | TGI [7]: > 100 µM

NC(=S)N/N=C(\CCC(=O)Nc1ccccc1[N+](=O)[O-])CC(=O)c1ccco1
TGI [1]: > 100 µM | TGI [8]: > 100 µM | TGI [3]: > 100 µM | TGI [9]: > 100 µM | TGI [5]: > 100 µM | TGI [6]: > 100 µM | TGI [7]: > 100 µM

O=C(O)CCC1CCc2cccc(OCC(=O)O)c2C1=O (centres undefined)
TGI [1]: > 100 µM | TGI [8]: > 100 µM | TGI [3]: > 100 µM | TGI [9]: > 100 µM | TGI [5]: > 100 µM | TGI [6]: > 100 µM

O=C(/C=C/c1nnc2n(Cc3ccccc3)c(=O)c3c4c(sc3n12)CCCC4)c1ccccc1
TGI [1]: > 100 µM | GI50 [4]: 0.219 µM | TGI [4]: 0.55 µM | GI50 [5]: 1.55 µM | TGI [5]: > 100 µM | GI50 [10]: 1.42 µM | TGI [10]: 4.44 µM | GI50 [6]: 0.0387 µM | TGI [6]: 0.419 µM | GI50 [7]: 3.06 µM

CC(=O)N(CCN1C(=O)c2ccccc2C1=O)CCN1C(=O)c2ccccc2C1=O
TGI [1]: > 100 µM | TGI [8]: > 100 µM | TGI [3]: > 100 µM | TGI [9]: > 100 µM | TGI [5]: > 100 µM | TGI [6]: > 100 µM | TGI [7]: > 100 µM

COc1ncc(-c2ccc3nccc(C#CCN4CCN(S(C)(=O)=O)CC4)c3c2)cc1NS(=O)(=O)c1ccc(F)cc1F
GI50 [1]: 0.0684 µM | TGI [1]: 1.17 µM | GI50 [8]: 0.264 µM | TGI [8]: 12 µM | GI50 [2]: 0.465 µM | TGI [2]: 12.4 µM | GI50 [3]: 0.124 µM | TGI [3]: 11.7 µM | GI50 [4]: 0.367 µM | TGI [4]: 17.2 µM | GI50 [9]: 0.0386 µM | TGI [9]: 0.517 µM | GI50 [10]: 0.058 µM | TGI [10]: 10.9 µM | GI50 [6]: 0.256 µM | TGI [6]: 11.7 µM | GI50 [7]: 0.0274 µM | TGI [7]: 3.73 µM

O=C(N/C=C/C=C/Sc1ccccc1)OCc1ccccc1
TGI [1]: 35.4 µM | TGI [8]: 57 µM | TGI [3]: 31.6 µM | TGI [9]: 39.5 µM | TGI [5]: 52.7 µM | TGI [6]: 29.5 µM | TGI [7]: 42 µM

O=[N+]([O-])c1ccc(/C(Cl)=C/c2ccc(/C=C(\Cl)c3ccc([N+](=O)[O-])cc3[N+](=O)[O-])cc2)c([N+](=O)[O-])c1
TGI [1]: > 100 µM | TGI [8]: > 100 µM | TGI [3]: > 100 µM | TGI [9]: > 100 µM | TGI [5]: > 100 µM | TGI [6]: > 100 µM | TGI [7]: > 100 µM
